# Results published in paper PMC6720883, “In Vitro Inhibitory Effects of APINACA on Human Major Cytochrome P450, UDP-Glucuronosyltransferase Enzymes, and Drug Transporters” (Molecules, 2019).
# Like-named read-outs stand apart in the source and are kept apart here.
# Legend:
# [1] = biological target: CYP2A6 (Homo sapiens, UniProt P11509); assay: Inhibition of CYP2A6-mediated coumarin 7-hydroxylase in ultrapooled human liver microsomes; format: in vitro ADME
# Description: (§1) The inhibitory potentials (IC50 values) of APINACA and typical CYP inhibitors on CYP 1A2, 2A6, 2C8, 2C9, 2C19, 2D6, and 3A4 activities in pooled human liver microsomes were evaluated following our previous method using a cocktail of CYP substrates, followed by LC–MS/MS [43]. […] After 3 min of preincubation at 37 °C, the reaction mixtures were incubated for 15 min at 37 °C with the addition of NADPH in a shaking water bath. The reaction was stopped by adding 100 μL of ice cold methanol containing internal standards (d9-1′-hydroxybufuralol for 1′-hydroxybufuralol, 4′-hydroxydiclofenac, 7-hydroxycoumarin, 1′-hydroxymidazolam, and 4′-hydroxymephenytoin; ^13C2, ^15N-acetaminophen for acetaminophen and N-desethylamodiaquine). The incubation mixtures were centrifuged at 13,000× g for 8 min at 4 °C, and 50 μL of each supernatant was diluted with 50 μL of water. Aliquots (5 μL) of the diluted supernatants were analyzed by LC–MS/MS. All assays were performed in triplicate, and the average values were used for subsequent calculations.
# (§2) To measure the time-dependent inhibition, human liver microsomes were preincubated with the various concentrations of APINACA (final concentrations of 0.1−100 μM) and NADPH for 30 min at 37 °C. Next, the reaction mixtures were incubated with a seven-CYP probe substrate cocktail or bupropion for 15 min at 37 °C. […]
# [2] = biological target: CYP2C19 (Homo sapiens, UniProt P33261); assay: Inhibition of CYP2C19-mediated [S]-mephenytoin 4′-hydroxylase in ultrapooled human liver microsomes; format: in vitro ADME
# CYP2C19, sequence (P33261 whole entry): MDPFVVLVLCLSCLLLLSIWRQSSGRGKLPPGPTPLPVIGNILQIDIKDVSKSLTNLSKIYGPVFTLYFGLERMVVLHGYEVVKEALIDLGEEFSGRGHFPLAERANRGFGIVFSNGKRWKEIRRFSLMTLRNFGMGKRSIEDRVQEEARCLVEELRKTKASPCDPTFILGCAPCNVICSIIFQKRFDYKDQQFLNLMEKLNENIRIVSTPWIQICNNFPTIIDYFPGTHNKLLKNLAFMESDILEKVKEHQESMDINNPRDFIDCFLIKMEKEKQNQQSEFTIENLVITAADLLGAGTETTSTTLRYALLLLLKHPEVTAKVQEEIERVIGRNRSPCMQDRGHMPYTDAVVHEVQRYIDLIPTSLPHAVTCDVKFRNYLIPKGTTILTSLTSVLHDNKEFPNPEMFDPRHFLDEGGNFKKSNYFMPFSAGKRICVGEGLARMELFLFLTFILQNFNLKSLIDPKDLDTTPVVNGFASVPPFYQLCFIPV
# Description: as §1, §2
# [3] = biological target: CYP3A4 (Homo sapiens, UniProt P08684); assay: Inhibition of CYP3A4-mediated midazolam 1′-hydroxylase in ultrapooled human liver microsomes; format: in vitro ADME; conditions: for IC50: CYP3A4 midazolam 1′-hydroxylase
# CYP3A4, sequence (P08684 2-503): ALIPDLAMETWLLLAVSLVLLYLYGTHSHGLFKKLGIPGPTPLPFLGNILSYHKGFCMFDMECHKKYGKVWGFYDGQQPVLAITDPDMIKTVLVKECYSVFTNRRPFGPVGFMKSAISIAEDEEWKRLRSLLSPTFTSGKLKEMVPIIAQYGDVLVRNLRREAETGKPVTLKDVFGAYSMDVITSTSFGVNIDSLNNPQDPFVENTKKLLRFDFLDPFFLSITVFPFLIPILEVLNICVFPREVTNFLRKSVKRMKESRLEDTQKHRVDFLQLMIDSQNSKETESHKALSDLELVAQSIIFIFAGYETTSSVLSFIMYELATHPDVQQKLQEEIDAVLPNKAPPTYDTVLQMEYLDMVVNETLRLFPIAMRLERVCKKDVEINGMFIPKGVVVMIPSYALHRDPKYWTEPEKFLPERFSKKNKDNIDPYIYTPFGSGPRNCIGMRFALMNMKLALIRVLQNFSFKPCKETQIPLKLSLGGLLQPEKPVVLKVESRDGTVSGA
# Description: as §1
# To measure the time-dependent inhibition, human liver microsomes were preincubated with the various concentrations of APINACA (final concentrations of 0.1−100 μM) and NADPH for 30 min at 37 °C. Next, the reaction mixtures were incubated with a seven-CYP probe substrate cocktail or bupropion for 15 min at 37 °C. The control reaction was performed by adding methanol instead of the test compounds.
# The column and autosampler temperatures were 40 °C and 4 °C, respectively.
# The data were processed using Mass Hunter software (Agilent Technologies).
# 1.1 (Systat Software, Inc.).
# [4] = biological target: UGT2B7 (Homo sapiens, UniProt P16662); assay: Inhibition of UGT2B7-catalyzed naloxone 3-β-D-glucuronidation in human liver microsomes; format: in vitro ADME
# UGT2B7, sequence (P16662 24-529): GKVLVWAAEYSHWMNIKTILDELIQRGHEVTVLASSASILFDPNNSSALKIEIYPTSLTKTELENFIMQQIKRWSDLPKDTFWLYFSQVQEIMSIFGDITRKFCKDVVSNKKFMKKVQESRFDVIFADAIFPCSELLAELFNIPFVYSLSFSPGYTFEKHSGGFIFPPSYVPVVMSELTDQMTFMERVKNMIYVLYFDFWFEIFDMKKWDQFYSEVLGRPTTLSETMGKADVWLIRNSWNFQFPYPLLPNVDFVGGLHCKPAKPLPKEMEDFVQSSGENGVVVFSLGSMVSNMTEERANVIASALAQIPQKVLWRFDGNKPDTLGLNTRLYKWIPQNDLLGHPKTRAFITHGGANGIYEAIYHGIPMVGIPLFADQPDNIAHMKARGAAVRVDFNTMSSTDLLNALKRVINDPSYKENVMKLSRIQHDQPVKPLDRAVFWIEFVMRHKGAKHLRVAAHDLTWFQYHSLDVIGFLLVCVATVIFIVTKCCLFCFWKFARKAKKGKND
# Description: The inhibitory effect of APINACA and typical UGT inhibitors on UGT1A1, UGT1A3, UGT1A4, UGT1A6, UGT1A9, and UGT2B7 were evaluated following our previous method by LC–MS/MS after incubation of ultrapooled human liver microsomes with a cocktail of UGT substrates [44]. […] The reactions were initiated by adding UDPGA, and the incubation continued for 60 min at 37 °C in a shaking water bath. The reactions were terminated by adding 50 μL of ice-cold acetonitrile containing internal standards (propofol glucuronide for chenodeoxycholic acid 24-acyl-β-glucuronide and mycophenolic acid glucuronide; and meloxicam for SN-38 glucuronide, trifluoperazine glucuronide, N-acetylserotonin β-D-glucuronide, and naloxone 3-β-D-glucuronide). The incubation mixtures were centrifuged at 13,000× g for 8 min at 4 °C. Next, 50 μL of each supernatant of A and B set was mixed, and aliquots (5 μL) were analyzed by LC–MS/MS. All assays were performed in triplicate, and the average values were used in calculations.
# To measure the time-dependent inhibition, human liver microsomes were preincubated with the various concentrations of APINACA (final concentrations of 0.1–100 μM) and UDPGA for 30 min at 37 °C. Next, the reaction mixtures were incubated with UGT probe substrate cocktail sets for 60 min at 37 °C. The control reaction was performed by adding methanol instead of the test compounds.
# [5] = biological target: T1, OCT1 (Homo sapiens, UniProt O15245); assay: Uptake of [3-H]methyl-4-phenylpyridinium in HEK293-OCT1 cells; format: in vitro ADME
# T1 construct: host or cells: HEK293 (transient overexpression)
# T1 sequence (O15245 1-554): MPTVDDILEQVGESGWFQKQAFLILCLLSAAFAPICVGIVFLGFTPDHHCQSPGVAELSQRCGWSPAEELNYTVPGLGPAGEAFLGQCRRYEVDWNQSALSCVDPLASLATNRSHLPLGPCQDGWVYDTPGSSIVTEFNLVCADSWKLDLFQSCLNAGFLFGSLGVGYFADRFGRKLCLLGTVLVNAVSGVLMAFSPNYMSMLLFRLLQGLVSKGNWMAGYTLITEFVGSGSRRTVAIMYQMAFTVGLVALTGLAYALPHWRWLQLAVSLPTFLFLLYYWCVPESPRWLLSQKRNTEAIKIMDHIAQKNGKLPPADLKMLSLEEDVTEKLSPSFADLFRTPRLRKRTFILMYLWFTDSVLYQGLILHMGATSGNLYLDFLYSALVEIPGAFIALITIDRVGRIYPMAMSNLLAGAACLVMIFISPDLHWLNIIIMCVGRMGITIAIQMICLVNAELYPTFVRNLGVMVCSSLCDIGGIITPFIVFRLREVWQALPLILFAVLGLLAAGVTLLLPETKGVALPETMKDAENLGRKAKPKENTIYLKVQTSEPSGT
# Description: (§3) To examine the effects of APINACA and typical inhibitors on transporter activity, the uptake of a probe substrate into HEK293 cells overexpressing the respective solute carrier transporters was measured in the presence of APINACA (final concentrations of 0–250 μM) or typical inhibitors for 5 min. The concentrations and probe substrates were selected as follows: 0.1 μM [3-H]MPP^+ (for OCT1 and OCT2), 0.1 μM [3-H]PAH (for OAT1), 0.1 μM [3-H]ES (for OAT3 and OATP1B1), and 0.1 μM [3-H]EG (for OATP1B3).
# (§4) 12.5 (Systat Software, Inc.; San Jose, CA, USA). […] 1.1 (Systat Software, Inc.).
# [6] = biological target: T2, OATP1B1 (Homo sapiens, UniProt Q9Y6L6); assay: Uptake of [3-H]estrone-3-sulfate in HEK293-OATP1B1 cells; format: in vitro ADME
# T2 construct: host or cells: HEK293 (transient overexpression)
# T2 sequence (Q9Y6L6 1-691): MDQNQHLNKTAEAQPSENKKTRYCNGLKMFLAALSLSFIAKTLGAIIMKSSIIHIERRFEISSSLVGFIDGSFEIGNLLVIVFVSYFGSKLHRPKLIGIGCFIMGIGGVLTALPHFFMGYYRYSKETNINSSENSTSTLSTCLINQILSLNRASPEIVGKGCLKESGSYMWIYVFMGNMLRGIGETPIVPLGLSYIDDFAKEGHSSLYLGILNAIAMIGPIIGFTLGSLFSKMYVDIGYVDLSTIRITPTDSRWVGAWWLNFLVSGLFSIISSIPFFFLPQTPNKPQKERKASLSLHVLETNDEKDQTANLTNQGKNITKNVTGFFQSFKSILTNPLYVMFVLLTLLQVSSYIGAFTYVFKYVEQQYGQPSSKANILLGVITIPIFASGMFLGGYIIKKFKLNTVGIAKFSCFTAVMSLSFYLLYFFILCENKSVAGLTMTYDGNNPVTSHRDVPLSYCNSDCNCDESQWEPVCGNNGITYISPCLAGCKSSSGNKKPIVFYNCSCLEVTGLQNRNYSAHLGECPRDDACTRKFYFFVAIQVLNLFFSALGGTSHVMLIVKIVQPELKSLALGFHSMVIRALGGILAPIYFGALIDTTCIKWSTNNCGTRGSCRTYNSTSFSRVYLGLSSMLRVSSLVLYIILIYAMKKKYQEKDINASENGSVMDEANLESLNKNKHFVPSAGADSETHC
# Description: as §3, §4
# [7] = biological target: OAT1 (Homo sapiens, UniProt Q4U2R8); assay: Uptake of [3-H]para-aminohippuric acid in HEK293-OAT1 cells
# OAT1, sequence (Q4U2R8 whole entry): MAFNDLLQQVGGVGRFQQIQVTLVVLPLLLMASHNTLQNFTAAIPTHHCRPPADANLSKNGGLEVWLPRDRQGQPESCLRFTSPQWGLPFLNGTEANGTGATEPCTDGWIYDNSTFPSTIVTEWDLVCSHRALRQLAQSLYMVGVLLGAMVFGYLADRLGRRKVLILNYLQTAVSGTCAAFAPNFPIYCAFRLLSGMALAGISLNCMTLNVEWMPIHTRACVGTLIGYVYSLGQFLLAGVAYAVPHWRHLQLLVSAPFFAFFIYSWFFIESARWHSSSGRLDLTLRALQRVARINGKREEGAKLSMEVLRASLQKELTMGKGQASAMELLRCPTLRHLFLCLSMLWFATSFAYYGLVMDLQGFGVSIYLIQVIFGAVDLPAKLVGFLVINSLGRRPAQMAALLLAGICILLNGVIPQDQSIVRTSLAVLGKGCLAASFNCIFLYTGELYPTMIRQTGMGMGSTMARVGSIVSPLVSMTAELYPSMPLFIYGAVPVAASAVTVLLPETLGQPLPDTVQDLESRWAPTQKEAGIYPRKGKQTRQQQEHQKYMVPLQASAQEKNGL
# CYP2A6, sequence (P11509 whole entry): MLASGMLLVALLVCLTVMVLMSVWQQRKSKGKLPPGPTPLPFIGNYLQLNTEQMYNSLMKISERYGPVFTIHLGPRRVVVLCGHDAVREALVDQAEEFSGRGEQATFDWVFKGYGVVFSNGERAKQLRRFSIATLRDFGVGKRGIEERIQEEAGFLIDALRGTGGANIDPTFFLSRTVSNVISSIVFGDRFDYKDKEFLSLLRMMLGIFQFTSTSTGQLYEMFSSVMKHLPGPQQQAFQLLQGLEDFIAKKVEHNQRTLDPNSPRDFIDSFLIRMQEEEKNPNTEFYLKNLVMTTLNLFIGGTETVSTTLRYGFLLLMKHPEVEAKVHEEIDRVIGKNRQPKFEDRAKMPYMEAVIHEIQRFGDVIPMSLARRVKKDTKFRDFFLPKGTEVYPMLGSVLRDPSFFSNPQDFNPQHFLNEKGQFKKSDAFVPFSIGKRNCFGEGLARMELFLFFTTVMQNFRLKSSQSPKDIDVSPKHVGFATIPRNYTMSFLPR
structure (smiles),measurement,setting,value
"CCCCCn1nc(C(=O)NC23CC4CC(CC(C4)C2)C3)c2ccccc21 [APINACA, N-(1-adamantyl)-1-pentyl-1H-indazole-3-carboxamide]",IC50,[1],> 100 µM
same,IC50,"[1]; read-out: IC50 (μM) With Preincubation, CYP2A6 coumarin 7-hydroxylase, ultrapooled human liver microsomes, 30-min preincubation with NADPH",> 100 µM
same,IC50,[2],> 100 µM
same,IC50,"[2]; read-out: IC50 (μM) With Preincubation, CYP2C19 [S]-mephenytoin 4′-hydroxylase, ultrapooled human liver microsomes, 30-min preincubation with NADPH",> 100 µM
same,IC50,"[3]; IC50 (μM) No Preincubation, 2.5 μM midazolam, no preincubation",16.9 µM
same,IC50,"[3]; IC50 (μM) With Preincubation, 30-min preincubation with NADPH",4.2 µM
same,fold lower IC50 of CYP3A4 midazolam 1′-hydroxylase after 30-min preincubation than with no preincubation,[3]; NADPH,ca. 4 fold
same,IC50,[4],> 100 µM
same,IC50,"[4]; read-out: IC50 UGT2B7 naloxone 3-β-D-glucuronidation, with 30-min preincubation, pooled human liver microsomes, 30-min preincubation with UDPGA (○)",> 100 µM
same,IC50,[5],> 250 µM
same,IC50,[6],> 250 µM
same,IC50,[7],> 250 µM
